The values that follow come from patent publication US8088930B2, “Benzimidazole derivatives” (Hoffmann-La Roche Inc., priority 2008, dated 2012).

The IC50 is the midpoint of a concentration-inhibition curve.

For the experiment, the target named is T1, FXR ligand binding domain (GST-FXR LBD fusion protein, human FXR aa 193-473) (Homo sapiens, UniProt Q96RI1).
T1 construct: fused on or other part: Glutathione-S-transferase (GST) fused N-terminally to the FXR LBD, used to capture the protein on glutathione SPA beads
T1 sequence (Q96RI1 211-486 limits assumed): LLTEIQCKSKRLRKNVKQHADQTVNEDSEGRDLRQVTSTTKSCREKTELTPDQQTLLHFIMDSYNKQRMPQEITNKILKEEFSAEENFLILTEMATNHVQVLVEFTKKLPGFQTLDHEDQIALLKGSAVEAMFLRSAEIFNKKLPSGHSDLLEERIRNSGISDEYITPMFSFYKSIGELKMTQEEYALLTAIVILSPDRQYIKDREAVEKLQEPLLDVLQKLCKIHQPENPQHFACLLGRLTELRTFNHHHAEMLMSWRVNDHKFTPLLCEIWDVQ
Briefly: Radioligand binding assay (scintillation proximity, radioligand displacement). Particulars: 40 nM GST-FXR LBD on SPA beads, test compound 6×10^−9 M to 2.5×10^−5 M, read-out: h-IC50 Binding. The procedure: The following tests were carried out in order to determine the activity of the compounds of formula (I).
To accomplish this, the portions of the sequences encoding the FXR LBD were amplified by polymerase chain reaction (PCR) from a full-length clone by PCR and then subcloned into the plasmid vectors. The final clone was verified by DNA sequence analysis.
The induction, expression, and subsequent purification of GST-LBD fusion protein was performed in E. coli strain BL21(pLysS) cells by standard methods (Current Protocols in Molecular Biology, Wiley Press, ed. Ausubel et al.).
Radioligand Binding Assay
Binding of test substances to the FXR ligand binding domain was assessed in a radioligand displacement assay. The assay was performed in a buffer consisting of 50 mM Hepes, pH 7.4, 10 mM NaCl, 5 mM MgCl2, 0.01% CHAPS. For each reaction well in a 96-well plate, 40 nM of GST-FXR LBD fusion protein was bound to 10 μg glutathione yttrium silicate SPA beads (Pharmacia Amersham) in a final volume of 50 μl by shaking. A radioligand (e.g., 20 nM of 2,N-dicyclohexyl-2-[2-(2,4 dimethoxy-phenyl)-benzoimidazol-1-yl]-acetamide) and test compounds were added, and scintillation proximity counting was performed. All binding assays were performed in 96-well plates and the amount of bound ligand was measured on a Packard TopCount using OptiPlates (Packard).
(In general: In a scintillation proximity assay essentially only radioactivity close to the scintillant gives light.)
`CC(C)(Oc1ccc(OCC(C2CCCCC2)n2c(-c3ccc(Cl)cc3)nc3cc(F)c(F)cc32)nc1)C(=O)O` (single isomer, unassigned; (-)) [Example 49, (−)-2-(6-{2-[2-(4-Chloro-phenyl)-5,6-difluoro-benzoimidazol-1-yl]-2-cyclohexyl-ethoxy}-pyridin-3-yloxy)-2-methyl-propionic acid]: the IC50 was determined as 0.4 µM.
Consider `O=C(O)C1(Oc2ccc(OCC(C3CCCCC3)n3c(-c4ccc(Cl)cc4)nc4cc(F)c(F)cc43)nc2)CC1` (single isomer, unassigned; (-)) [Example 51, (−)-1-(6-{2-[2-(4-Chloro-phenyl)-5,6-difluoro-benzoimidazol-1-yl]-2-cyclohexyl-ethoxy}-pyridin-3-yloxy)-cyclopropanecarboxylic acid], for which the half-inhibitory concentration (IC50) was 0.3 µM.
For the molecule `Cc1cc(C(=O)O)cc(C)c1OCC(C1CCCCC1)n1c(-c2ccc(Cl)cc2)nc2cc(F)c(F)cc21` (single isomer, unassigned; (-)) [Example 55, (−)-4-{2-[2-(4-Chloro-phenyl)-5,6-difluoro-benzoimidazol-1-yl]-2-cyclohexyl-ethoxy}-3,5-dimethyl-benzoic acid], the IC50 was 0.004 µM.
Take `Fc1cc2nc(-c3ccc(Cl)cc3)n(C(COc3ccc(-c4nnn[nH]4)cn3)C3CCCCC3)c2cc1F` (single isomer, unassigned; (-)) [Example 63, (−)-2-(4-Chloro-phenyl)-1-{1-cyclohexyl-2-[5-(1H-tetrazol-5-yl)-pyridin-2-yloxy]-ethyl}-5,6-difluoro-1H-benzoimidazole]: the half-inhibitory concentration (IC50) came out at 0.09 µM.
The figure for `O=C(O)c1ccc(COCC(C2CCCCC2)n2c(-c3ccc(Cl)cc3)nc3cc(F)c(F)cc32)c(F)c1` (single isomer, unassigned; (-)) [Example 65, (−)-4-{2-[2-(4-Chloro-phenyl)-5,6-difluoro-benzoimidazol-1-yl]-2-cyclohexyl-ethoxymethyl}-3-fluoro-benzoic] is 0.2 µM; for `O=C(O)c1ccc(COCC(C2CCCCC2)n2c(-c3ccc(Cl)cc3)nc3cc(F)c(F)cc32)cc1` (single isomer, unassigned; (-)) [Example 68, (−)-4-{2-[2-(4-Chloro-phenyl)-5,6-difluoro-benzoimidazol-1-yl]-2-cyclohexyl-ethoxymethyl}-benzoic acid] it is 0.06 µM; for `Cc1cc(-c2nnn[nH]2)cc(C)c1OCC(C1CCCCC1)n1c(-c2ccc(Cl)cc2)nc2cc(F)c(F)cc21` (single isomer, unassigned; (-)) [Example 71, (−)-2-(4-Chloro-phenyl)-1-{1-cyclohexyl-2-[2,6-dimethyl-4-(1H-tetrazol-5-yl)-phenoxy]-ethyl}-5,6-difluoro-1H-benzoimidazole] it is 0.06 µM.
Next, `COc1ccc(-c2nc3cc(F)c(F)cc3n2C(COc2ccc(C(=O)O)cn2)C2CCCCC2)c(OC)n1` (single isomer, unassigned; (-)) [Example 75, (−)-6-{2-Cyclohexyl-2-[2-(2,6-dimethoxy-pyridin-3-yl)-5,6-difluoro-benzoimidazol-1-yl]-ethoxy}-nicotinic acid]: 0.09 µM.
Consider `O=C(O)c1cc(F)c(OCC(C2CCCCC2)n2c(-c3ccc(Cl)cc3)nc3cc(F)c(F)cc32)c(Cl)c1` (single isomer, unassigned; (-)) [Example 77, (−)-3-Chloro-4-{2-[2-(4-chloro-phenyl)-5,6-difluoro-benzoimidazol-1-yl]-2-cyclohexyl-ethoxy}-5-fluoro-benzoic acid], for which the IC50 was determined as 0.003 µM.
Take `Fc1cc2nc(-c3ccc(Cl)cc3)n(C(COc3ccc(-c4nnn[nH]4)cc3F)C3CCCCC3)c2cc1F` (single isomer, unassigned; (-)) [Example 81, (−)-2-(4-Chloro-phenyl)-1-{1-cyclohexyl-2-[2-fluoro-4-(1H-tetrazol-5-yl)-phenoxy]-ethyl}-5,6-difluoro-1H-benzoimidazole]: the half-inhibitory concentration (IC50) was determined as 0.01 µM.
Next, `O=C(O)c1cc(F)c(OCC(C2CCCCC2)n2c(-c3ccc(Cl)cc3)nc3cc(F)c(F)cc32)c(F)c1` (single isomer, unassigned; (-)) [Example 86, (−)-4-{2-[2-(4-Chloro-phenyl)-5,6-difluoro-benzoimidazol-1-yl]-2-cyclohexyl-ethoxy}-3,5-difluoro-benzoic acid]: 0.003 µM.
For `CC(C)(Oc1ccc(-c2nnn[nH]2)cc1)C(C1CCCCC1)n1c(-c2ccc(Cl)cc2)nc2cc(F)c(F)cc21` (single isomer, unassigned; (-)) [Example 88, (−)-2-(4-Chloro-phenyl)-1-{1-cyclohexyl-2-methyl-2-[4-(1H-tetrazol-5-yl)-phenoxy]-propyl}-5,6-difluoro-1H-benzoimidazole], the concentration for half-maximal inhibition (IC50) worked out at 0.003 µM.
With `CC(C)(Oc1ccc(C(=O)O)cc1)C(C1CCCCC1)n1c(-c2ccc(Cl)cc2)nc2cc(F)c(F)cc21` (single isomer, unassigned; (-)) [Example 89, (−)-4-{2-[2-(4-Chloro-phenyl)-5,6-difluoro-benzoimidazol-1-yl]-2-cyclohexyl-1,1-dimethyl-ethoxy}-benzoic acid], the IC50 was found to be 0.01 µM.
For `COc1ccc(-c2nc3cc(F)c(F)cc3n2C(COc2c(F)cc(C(=O)O)cc2F)C2CCCCC2)c(OC)n1` (single isomer, unassigned; (-)) [Example 98, (−)-4-{2-Cyclohexyl-2-[2-(2,6-dimethoxy-pyridin-3-yl)-5,6-difluoro-benzoimidazol-1-yl]-ethoxy}-3,5-difluoro-benzoic acid], the IC50 came out at 0.001 µM.
The figure for `COc1ccc(-c2nc3cc(F)c(F)cc3n2C(COc2c(C)cc(-c3nnn[nH]3)cc2C)C2CCCCC2)c(OC)n1` (single isomer, unassigned; (-)) [Example 101, (−)-1-{1-Cyclohexyl-2-[2,6-dimethyl-4-(1H-tetrazol-5-yl)-phenoxy]-ethyl}-2-(2,6-dimethoxy-pyridin-3-yl)-5,6-difluoro-1H-benzoimidazole] is 0.0002 µM; for `O=C(O)c1cc(F)c(OCC(C2CCCCC2)n2c(-c3ccc(Cl)cc3)nc3ccccc32)c(F)c1` (single isomer, unassigned; (-)) [Example 104, (−)-4-{2-[2-(4-Chloro-phenyl)-benzoimidazol-1-yl]-2-cyclohexyl-ethoxy}-3,5-difluoro-benzoic acid] it is 0.05 µM.
On to `Cc1cc(C(=O)O)cc(C)c1OCC(C1CCCCC1)n1c(-c2ccc(Cl)cc2)nc2ccccc21` (single isomer, unassigned; (-)) [Example 106, (−)-4-{2-[2-(4-Chloro-phenyl)-benzoimidazol-1-yl]-2-cyclohexyl-ethoxy}-3,5-dimethyl-benzoic acid], for which the IC50 is 0.1 µM.
Next, `O=C(O)c1cc(F)c(OCC(C2CCCCC2)n2c(-c3ccc(Cl)cc3)nc3ccccc32)c(Cl)c1` (single isomer, unassigned; (-)) [Example 109, (−)-3-Chloro-4-{2-[2-(4-chloro-phenyl)-benzoimidazol-1-yl]-2-cyclohexyl-ethoxy}-5-fluoro-benzoic acid]: 0.03 µM; `Cc1cc(-c2nnn[nH]2)cc(C)c1OCC(C1CCCCC1)n1c(-c2ccc(Cl)cc2)nc2ccccc21` (single isomer, unassigned; (-)) [Example 112, (−)-2-(4-Chloro-phenyl)-1-{1-cyclohexyl-2-[2,6-dimethyl-4-(1H-tetrazol-5-yl)-phenoxy]-ethyl}-1H-benzoimidazole]: 0.11 µM; `O=C(O)C1(Oc2ccc(OCC(C3CCCCC3)n3c(-c4ccc(Cl)cc4)nc4cc(F)c(F)cc43)cc2)CCC1` (single isomer, unassigned; (-)) [Example 119, (−)-1-(4-{2-[2-(4-Chloro-phenyl)-5,6-difluoro-benzoimidazol-1-yl]-2-cyclohexyl-ethoxy}-phenoxy)-cyclobutanecarboxylic acid]: 0.11 µM.
As for `O=C(O)C1(Oc2ccc(OCC(C3CCCCC3)n3c(-c4ccc(Cl)cc4)nc4cc(F)c(F)cc43)cc2)CC1` (single isomer, unassigned; (-)) [Example 121, (−)-1-(4-{2-[2-(4-Chloro-phenyl)-5,6-difluoro-benzoimidazol-1-yl]-2-cyclohexyl-ethoxy}-phenoxy)-cyclopropanecarboxylic acid], the IC50 was determined as 0.02 µM.
The figure for `Cc1cc(Cl)ccc1-c1nc2cc(F)c(F)cc2n1C(COc1c(F)cc(C(=O)O)cc1F)C1CCCCC1` (single isomer, unassigned; (-)) [Example 125, (−)-4-{2-[2-(4-Chloro-2-methyl-phenyl)-5,6-difluoro-benzoimidazol-1-yl]-2-cyclohexyl-ethoxy}-3,5-difluoro-benzoic acid] is 0.01 µM.
